The subject of one data set is HepG2 cells. As to the kind of experiment: CCK-8 cell viability. In kind it is cell-based, human. The settings on record: 24 h, 50. How it is done: Human liver cancer cell line HepG2 were grown in DMEM containing 10% FBS and 1% penicillin/streptomycin at 37 °C in a humidified atmosphere of 5% CO2. HepG2 cells (1.2 × 10^5 cells/well) were seeded in a 4-well glass plate for 24 h. Then, SNCPs@st-p53pep (0.02 mg/mL) and st-p53pep alone (2 μM) were added to each well in a serum-free medium for 4 h. After incubation, the cells were carefully rinsed with PBS, and the medium was replaced with a serum-containing fresh medium. After the nucleus was stained with Hoechst 33342 staining kit by manufacturer’s protocol, bright field and fluorescence images were obtained by using a DeltaVision Elite Microscopy System (GE Healthcare, USA). To observe the distribution of SNCP8 and st-p53pep in cells, TAMRA-labeled SNCP8@FAM-labeled st-p53pep (0.25 mg/mL) was treated in the same manner instead of SNCP8@st-p53pep. And then, the Mander’s overlap coefficient (MOC) was calculated in the Image J program (ver. 1.52a) via the JACoP plugin to identify co-localization between fluorescence signals over time. […] The cell viability was determined using cell counting kit-8 (CCK-8) assay by monitoring absorbance at 450 and 670 nm wavelength measured using a microplate reader (Molecular Devices, Inc., USA). The EC50 values of SNCPs@st-p53pep were determined by the logistic curve-fitting method with Origin (OriginLab, USA).

In another data set the test system is p53 in HepG2 cells. As to the kind of experiment: Western blot, p53 protein level. The data set is classed as cell-based, human. How it is done: (§1) Cells were lysed with Pro-PREP (IntronBio, Korea) according to the manufacturer’s protocol. The samples were centrifuged at 2000 × g and 4 °C for 15 min. The supernatant was collected to a 1.5 mL ep-tube and stored at −80 °C. After protein quantification using Pierce^TM BCA assay kit (Thermo Fisher Scientific, USA), the same amount of protein was diluted in water containing 5×loading buffer (Biosesang, Korea) and loaded on SDS-PAGE gel (Bio-rad, USA). After electrophoresis in Tris-Glycine SDS buffer at 80 V for 120 min, proteins in a gel were transferred to a nitrocellulose membrane (0.45 μm, Bio-rad, USA) in 1× Tris-Glycine Native Buffer (GenDEPOT, Korea) with 10% methanol at 90 V, and 4 °C for 90 min under stirring condition. The membrane was blocked with 5% milk to inhibit non-specific binding and immersed overnight at 4 °C in the presence of primary antibodies; GAPDH (1:2000, Abcam, USA), p53 (1:1000, Cell signaling, USA), MDM2 (1:1000, Cell signaling, USA), Bcl2 (1:1000, Cell signaling, USA) and CytC (1:1000, Cell signaling, USA). Anti-rabbit goat pAb, horseradish peroxidase (HRP)-linked antibody (1:5000, Abcam, USA) was used as a secondary antibody and the membrane was incubated for 1 h. After the reaction with the detection agent West Pico PLUS (Thermo Fisher Scientific, USA), bands of protein were monitored by a ImageQuant^TM LAS 4000 mini (GE Healthcare, USA). […]
(In general: In western blotting, separated proteins are transferred to a membrane and probed.)

A further data set deals with MDM2 in HepG2 cells. As to the kind of experiment: Western blot, MDM2 protein level. The data set is classed as cell-based, human. The procedure:
as §1

In a further data set the test system is CytC in HepG2 cells. As to the kind of experiment: Western blot, cytochrome c protein level. The data set is classed as cell-based, human. The procedure: as §1
Data set [1] relates to human liver cancer (HepG2) xenograft. In words: Tumor growth inhibition, intratumoral injection. The settings on record: HepG2 xenograft mice; intratumoral every 3 days, 14 days; 50 mg SNCP8/kg, 5 μmole st-p53pep/kg; n = 3; versus untreated control. In kind it is in vivo, Balb/c male nude mice. The procedure: All of animal experiments were conducted in accordance with the Institutional Animal Care and Use Committees (IACUC) of Seoul National University. 5-week old Balb/c male nude mice were purchased (ORIENT BIO, Korea). Mice were housed in an environmentally controlled room (23 °C, with 55 ± 5% humidity and 12 h / 12 h light–dark cycle). To prepare tumor-bearing mice, a suspension of the HepG2 cells (6 × 10^6 cells) in 100 µL of sterilized PBS was subcutaneously injected (n = 3, biologically independent animals). Tumor-bearing mice were reared until the tumor volumes reach ~50 mm^3 and used for experiments. […] The changes in tumor volume and body weight were monitored over 14 days. Tumor volumes were calculated by using the equation of 1/2 × length × (width)^2, where the length and width are the longest and shortest diameters (mm) of the tumor, respectively. […] Bright field and fluorescence images from mice were obtained overtime for 3 days by using fluorescence in vivo imaging system, FoBI (Neoscience, Korea). The relative intensity of FAM fluorescence attached to st-p53pep was calculated by using the region of interest (ROI) analysis. The half-life of FAM fluorescence decay was determined by exponential curve fitting method with Origin 2017 (OriginLab, USA).

Data set [2] is described as follows: Whole-body FAM fluorescence decay in tumor after intratumoral injection. The data set is classed as in vivo, Balb/c male nude mice. To be noted: for rel. fluor. Int. (FAM): tumor ROI. The procedure:
All of animal experiments were conducted in accordance with the Institutional Animal Care and Use Committees (IACUC) of Seoul National University. 5-week old Balb/c male nude mice were purchased (ORIENT BIO, Korea). Mice were housed in an environmentally controlled room (23 °C, with 55 ± 5% humidity and 12 h / 12 h light–dark cycle). To prepare tumor-bearing mice, a suspension of the HepG2 cells (6 × 10^6 cells) in 100 µL of sterilized PBS was subcutaneously injected (n = 3, biologically independent animals). Tumor-bearing mice were reared until the tumor volumes reach ~50 mm^3 and used for experiments. To investigate tumor growth inhibition efficiency, SNCP8@st-p53pep, SNCP8, and st-p53pep alone in 100 μL of PBS solution (50 mg SNCP8/kg, 5 μmole st-p53pep/kg) were directly injected into the tumor. The same volume of PBS solution was also directly treated into the tumor as a control. Intratumoral injection was performed at 3 day intervals. The changes in tumor volume and body weight were monitored over 14 days. Tumor volumes were calculated by using the equation of 1/2 × length × (width)^2, where the length and width are the longest and shortest diameters (mm) of the tumor, respectively. The relative tumor volume was derived from comparing it with the initial tumor volume. To observe sustainability and tumor exposure of st-p53pep in vivo, we used nude mice with HeLa and HepG2 cell xenografts prepared in the same manner as the tumor growth inhibition experiment. TAMRA-labeled SNCP8@ FAM-labeled st-p53pep was treated in the same manner as the tumor growth inhibition experiment instead of SNCP8@st-p53pep. Bright field and fluorescence images from mice were obtained overtime for 3 days by using fluorescence in vivo imaging system, FoBI (Neoscience, Korea). The relative intensity of FAM fluorescence attached to st-p53pep was calculated by using the region of interest (ROI) analysis. The half-life of FAM fluorescence decay was determined by exponential curve fitting method with Origin 2017 (OriginLab, USA).

Data set [3] is described as follows: Water solubility (in words). The data set is classed as physicochemical.

Where only a bound is given, the exact number is not on record here.

For the compound `CC(C)C[C@@H]1NC(=O)[C@H](CC(C)C)NC(=O)[C@H](CCCNC(=N)N)NC(=O)[C@H](Cc2c[nH]c3ccccc23)NC(=O)[C@H](CC(C)C)NC(=O)[C@H](CC(N)=O)NC(=O)[C@H](NC(=O)[C@H](Cc2ccccc2)NC(=O)[C@@H](NC(=O)[C@H](CCC(N)=O)NC(=O)[C@H](CCC(N)=O)NC(=O)[C@H](CO)NC(=O)[C@H](CCC(N)=O)NC(=O)CNC(=O)CNC(=O)c2ccc3c(c2)C(=O)OC32c3ccc(O)cc3Oc3cc(O)ccc32)[C@@H](C)O)CCCCNC(=O)CCc2cn(nn2)CCC[C@@H](C(=O)N[C@@H](CCC(N)=O)C(=O)N[C@@H](CC(N)=O)C(N)=O)NC1=O` [st-p53pep], the “cell viability at corresponding dose” value in the data set with HepG2 cells is on record as “more than 80%”. Moreover, the “p53 level relative to Control” value in the data set on p53 in HepG2 cells (/GAPDH, Control = 1) worked out at 1.126. The “p53 rel. (/GAPDH)” value with p53 in HepG2 cells (intensity divided by GAPDH) is given as 0.7745. In addition, the “MDM2 level relative to Control” value with MDM2 in HepG2 cells (/GAPDH, Control = 1) is 0.8607. For the same compound, the “MDM2 rel. (/GAPDH)” value in the data set with MDM2 in HepG2 cells (intensity divided by GAPDH) is reported as 0.7522. In addition, in the data set with CytC in HepG2 cells (/GAPDH, Control = 1), the “CytC level relative to Control” value is listed as 1.304. For the same compound, the “CytC rel. (/GAPDH)” value in the data set with CytC in HepG2 cells (intensity divided by GAPDH) stood at 0.81. The “growth of tumor volume (in words)” value in data set [1] is listed as “no notable difference”. Moreover, the “rel. fluor. Int. (FAM)” value in data set [2] (0 hours after intratumoral injection) was 70000; in data set [2] (6 hours after intratumoral injection) it was 21050; in data set [2] (12 hours after intratumoral injection) it was 7081; in data set [2] (24 hours after intratumoral injection), 501; in data set [2] (48 hours after intratumoral injection), 1; in data set [2] (72 hours after intratumoral injection) it was 1. The “time until green fluorescence signal in tumor disappeared” value in data set [2] (tumor-bearing mouse, intratumoral injection) is at most 24 h. Moreover, in data set [2] (tumor-xenograft mice, intratumoral injection, ROI analysis of whole-body image, exponential fit), the “half-life (t1/2) of green (FAM) fluorescence decay in tumor” value turned out to be 3.5 h. Moreover, the “solubility in water (in words)” value in data set [3] is listed as “poor water solubility”.

(Values after article PMC9356039, “Multifunctional synthetic nano-chaperone for peptide folding and intracellular delivery” (Nature Communications, 2022).)
